Experimental data from patent US20240228506A1, “RIPK1 INHIBITORS AND METHODS OF USE” (Merck Sharp & Dohme LLC, priority 2021, published 2024).

These compounds were tested against T1, GST-RIPK1 (recombinant GST-RIPK1 kinase domain (residues 1-327)) (Homo sapiens, UniProt Q13546) (assay: RIPK1-ADP-Glo enzymatic assay). Conditions: 25 nM GST-RIPK1, 300 μM ATP, 3 μM dephosphorylated-MBP; 30 minutes pre-incubation, 150 minutes reaction; ten-point titration.
T1 construct: recombinant GST-RIPK1 kinase domain (residues 1-327) enzyme; made in house; host or cells: baculovirus-transfected Sf21 insect cells
T1 sequence (Q13546 1-327): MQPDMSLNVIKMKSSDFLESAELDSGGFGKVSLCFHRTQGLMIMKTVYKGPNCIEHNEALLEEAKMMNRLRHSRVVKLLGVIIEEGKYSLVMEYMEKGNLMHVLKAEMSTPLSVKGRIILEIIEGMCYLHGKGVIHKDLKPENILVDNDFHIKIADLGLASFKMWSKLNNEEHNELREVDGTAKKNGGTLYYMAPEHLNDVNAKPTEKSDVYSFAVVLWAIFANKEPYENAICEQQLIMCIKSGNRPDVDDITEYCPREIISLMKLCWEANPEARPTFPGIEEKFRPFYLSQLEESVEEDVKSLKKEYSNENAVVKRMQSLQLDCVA
Assay type: biochemical
Method in brief: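 Ten-point 1:3 titrations from 100000 nM, 1% DMSO, were preincubated 30 min with 25 nM GST-RIPK1 (1-327) before starting with 300 μM ATP plus 3 μM dephosphorylated MBP; 150 min reaction. ADP-Glo luminescence measured ATP-to-ADP conversion; EC50 by four-parameter sigmoidal regression.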

Row | SMILES | IC50 [nM]
1 | N#Cc1cncc2c1O[C@H]1C[C@@H]2N(C(=O)C23CCCC2C3(F)F)C1 (stereo partly drawn) [Compound 1-81, (2S,5S)-4-(6,6-difluorobicyclo[3.1.0]hexane-1-carbonyl)-2,3,4,5-tetrahydro-2,5-methanopyrido[3,4-f][1,4]oxazepine-9-carbonitrile] | 93
2 | N#Cc1ccnc(N2CCC(F)(C(=O)N3C[C@@H]4C[C@H]3c3cncc(C#N)c3O4)CC2)n1 [Compound 1-83, (2S,5S)-4-(1-(4-cyanopyrimidin-2-yl)-4-fluoropiperidine-4-carbonyl)-2,3,4,5-tetrahydro-2,5-methanopyrido[3,4-f][1,4]oxazepine-9-carbonitrile] | 30
3 | CN(C)C1(C(=O)N2C[C@@H]3C[C@H]2c2cncc(C#N)c2O3)CCC1 [Compound 1-91, (2S,5S)-4-(1-(dimethylamino)cyclobutane-1-carbonyl)-2,3,4,5-tetrahydro-2,5-methanopyrido[3,4-f][1,4]oxazepine-9-carbonitrile] | 64
4 | N#Cc1cncc2c1O[C@H]1C[C@@H]2N(C(=O)C23CC(F)(C2)C3)C1 [Compound 1-92, (2S,5S)-4-(3-fluorobicyclo[1.1.1]pentane-1-carbonyl)-2,3,4,5-tetrahydro-2,5-methanopyrido[3,4-f][1,4]oxazepine-9-carbonitrile] | 84
5 | CC12CCC(C(=O)N3C[C@@H]4C[C@H]3c3cncc(C#N)c3O4)(CC1)C2 [Compound 1-94, (2S,5S)-4-(4-methylbicyclo[2.2.1]heptane-1-carbonyl)-2,3,4,5-tetrahydro-2,5-methanopyrido[3,4-f][1,4]oxazepine-9-carbonitrile] | 15
6 | C=CC(C)(C)C(=O)N1C[C@@H]2C[C@H]1c1cncc(C#N)c1O2 [Compound 1-95, (2S,5S)-4-(2,2-dimethylbut-3-enoyl)-2,3,4,5-tetrahydro-2,5-methanopyrido[3,4-f][1,4]oxazepine-9-carbonitrile] | 30
7 | C#CC(C)(C)C(=O)N1C[C@@H]2C[C@H]1c1cncc(C#N)c1O2 [Compound 1-96, (2S,5S)-4-(2,2-dimethylbut-3-ynoyl)-2,3,4,5-tetrahydro-2,5-methanopyrido[3,4-f][1,4]oxazepine-9-carbonitrile] | 148
8 | COC12CCC(C(=O)N3C[C@@H]4C[C@H]3c3cncc(C#N)c3O4)(CC1)C2 [Compound 1-97, (2S,5S)-4-(4-methoxybicyclo[2.2.1]heptane-1-carbonyl)-2,3,4,5-tetrahydro-2,5-methanopyrido[3,4-f][1,4]oxazepine-9-carbonitrile] | 92
9 | CCC12CC(C(=O)N3C[C@@H]4C[C@H]3c3cncc(C#N)c3O4)(C1)C2 [Compound 1-98, (2S,5S)-4-(3-ethylbicyclo[1.1.1]pentane-1-carbonyl)-2,3,4,5-tetrahydro-2,5-methanopyrido[3,4-f][1,4]oxazepine-9-carbonitrile] | 57
10 | CC(C)C12CC(C(=O)N3C[C@@H]4C[C@H]3c3cncc(C#N)c3O4)(C1)C2 [Compound 1-99, (2S,5S)-4-(3-isopropylbicyclo[1.1.1]pentane-1-carbonyl)-2,3,4,5-tetrahydro-2,5-methanopyrido[3,4-f][1,4]oxazepine-9-carbonitrile] | 48
11 | N#Cc1cncc2c1O[C@H]1C[C@@H]2N(C(=O)[C@H]2C[C@@H](Oc3ccc(F)cc3F)C2)C1 [Compound 1-101] | 132
12 | N#Cc1cncc2c1O[C@H]1C[C@@H]2N(C(=O)[C@H]2C[C@H](Oc3ccc(F)cc3F)C2)C1 [Compound 1-102] | 76
13 | CC(C)(OC(F)(F)F)C(=O)N1C[C@@H]2C[C@H]1c1cncc(C#N)c1O2 [Compound 1-103, (2S,5S)-4-(2-methyl-2-(trifluoromethoxy)propanoyl)-2,3,4,5-tetrahydro-2,5-methanopyrido[3,4-f][1,4]oxazepine-9-carbonitrile] | 163
14 | CC12CC(C(=O)N3C[C@@H]4C[C@H]3c3cncc(C#N)c3O4)(C1)C2 [Compound 1-104, (2S,5S)-4-(3-methylbicyclo[1.1.1]pentane-1-carbonyl)-2,3,4,5-tetrahydro-2,5-methanopyrido[3,4-f][1,4]oxazepine-9-carbonitrile] | 203
15 | CN1CC2CC1(C(=O)N1C[C@@H]3C[C@H]1c1cncc(C#N)c1O3)C2 [Compound 1-109, (2S,5S)-4-(2-methyl-2-azabicyclo[2.1.1]hexane-1-carbonyl)-2,3,4,5-tetrahydro-2,5-methanopyrido[3,4-f][1,4]oxazepine-9-carbonitrile] | 241
16 | N#Cc1cncc2c1O[C@H]1C[C@@H]2N(C(=O)C2(C#N)CCCC2)C1 [Compound 1-111, (2S,5S)-4-(1-cyanocyclopentane-1-carbonyl)-2,3,4,5-tetrahydro-2,5-methanopyrido[3,4-f][1,4]oxazepine-9-carbonitrile] | 184
17 | CC(C)(C(=O)N1C[C@@H]2C[C@H]1c1cncc(F)c1O2)C(F)F [Compound 2-1, 3,3-Difluoro-1-((2S,5S)-9-fluoro-2,3-dihydro-2,5-methanopyrido[3,4-f][1,4]oxazepin-4(5H)-yl)-2,2-dimethylpropan-1-one] | 184
18 | O=C(N1C[C@@H]2C[C@H]1c1cncc(Cl)c1O2)C12CCC(F)(CC1)C2 [Compound 2-3, ((2S,5S)-9-Chloro-2,3-dihydro-2,5-methanopyrido[3,4-f][1,4]oxazepin-4(5H)-yl)(4-fluorobicyclo[2.2.1]heptan-1-yl)methanone] | 8
19 | CC(F)(F)C(C)(C)C(=O)N1C[C@@H]2C[C@H]1c1cncc(Cl)c1O2 [Compound 2-5, 1-[(2S,5S)-9-chloro-2,3-dihydro-2,5-methanopyrido[3,4-f][1,4]oxazepin-4(5H)-yl]-3,3-difluoro-2,2-dimethylbutan-1-one] | 18
20 | CC(C)(C(=O)N1C[C@@H]2C[C@H]1c1cncc(Cl)c1O2)C1CC1 [Compound 2-6] | 24
21 | O=C(N1C[C@@H]2C[C@H]1c1cncc(F)c1O2)C12CCC(F)(CC1)C2 [Compound 2-7, (4-fluorobicyclo[2.2.1]heptan-1-yl)[(2S,5S)-9-fluoro-2,3-dihydro-2,5-methanopyrido[3,4-f][1,4]oxazepin-4(5H)-yl]methanone] | 26

Continued by falling IC50, values first:

Row | IC50 [nM] | SMILES
22 | 394 | CC(C)(C)C(=O)N1C[C@@H]2C[C@H]1c1cncc(Br)c1O2 [Compound 2-8, 1-((2S,5S)-9-bromo-2,3-dihydro-2,5-methanopyrido[3,4-f][1,4]oxazepin-4(5H)-yl)-2,2-dimethylpropan-1-one]
23 | 269 | N#Cc1cncc2c1O[C@H]1C[C@@H]2N(C(=O)C23CCC(CO2)C3)C1 [Compound 1-108, (2S,5S)-4-(2-oxabicyclo[2.2.1]heptane-1-carbonyl)-2,3,4,5-tetrahydro-2,5-methanopyrido[3,4-f][1,4]oxazepine-9-carbonitrile]
24 | 139 | CC(C)(C(=O)N1C[C@@H]2C[C@H]1c1cncc(Cl)c1O2)C(F)F [Compound 2-2, 1-((2S,5S)-9-Chloro-2,3-dihydro-2,5-methanopyrido[3,4-f][1,4]oxazepin-4(5H)-yl)-3,3-difluoro-2,2-dimethylpropan-1-one]
25 | 129 | N#Cc1cncc2c1O[C@H]1C[C@@H]2N(C(=O)C2(C#N)CCC2)C1 [Compound 1-110, (2S,5S)-4-(1-cyanocyclobutane-1-carbonyl)-2,3,4,5-tetrahydro-2,5-methanopyrido[3,4-f][1,4]oxazepine-9-carbonitrile]
26 | 92 | CCCC12CC(C(=O)N3C[C@@H]4C[C@H]3c3cncc(C#N)c3O4)(C1)C2 [Compound 1-105, (2S,5S)-4-(3-propylbicyclo[1.1.1]pentane-1-carbonyl)-2,3,4,5-tetrahydro-2,5-methanopyrido[3,4-f][1,4]oxazepine-9-carbonitrile]
27 | 88 | N#Cc1cncc2c1O[C@H]1C[C@@H]2N(C(=O)C23CC(Cl)(C2)C3)C1 [Compound 1-93, (2S,5S)-4-(3-chlorobicyclo[1.1.1]pentane-1-carbonyl)-2,3,4,5-tetrahydro-2,5-methanopyrido[3,4-f][1,4]oxazepine-9-carbonitrile]
28 | 85 | CN(C)C(C)(C)C(=O)N1C[C@@H]2C[C@H]1c1cncc(C#N)c1O2 [Compound 1-90, (2S,5S)-4-(2-(dimethylamino)-2-methylpropanoyl)-2,3,4,5-tetrahydro-2,5-methanopyrido[3,4-f][1,4]oxazepine-9-carbonitrile]
29 | 28 | N#Cc1cncc2c1O[C@H]1C[C@@H]2N(C(=O)C23CCC(C#N)(C2)C3)C1 [Compound 1-100, (2S,5S)-4-(4-cyanobicyclo[2.1.1]hexane-1-carbonyl)-2,3,4,5-tetrahydro-2,5-methanopyrido[3,4-f][1,4]oxazepine-9-carbonitrile]
30 | 13 | Cc1ncc2c(c1C#N)O[C@H]1C[C@@H]2N(C(=O)C23CCC(C(F)(F)F)(CC2)C3)C1 [Compound 1-82, (2S,5S)-8-methyl-4-(4-(trifluoromethyl)bicyclo[2.2.1]heptane-1-carbonyl)-2,3,4,5-tetrahydro-2,5-methanopyrido[3,4-f](1,4]oxazepine-9-carbonitrile]
31 | 10 | O=C(N1C[C@@H]2C[C@H]1c1cncc(Cl)c1O2)C12CCC(C(F)(F)F)(CC1)C2 [Compound 2-4, [(2S,5S)-9-chloro-2,3-dihydro-2,5-methanopyrido[3,4-f][1,4]oxazepin-4(5H)-yl][4-(trifluoromethyl)bicyclo [2.2.1]heptan-1-yl]methanone]
